Test results reported in patent US8557816B2, “Aurora kinase modulators and method of use” (Amgen Inc., priority 2007, dated 2013).

Tests used:
[1] = target: T1, AuroraA-TPX2 (Homo sapiens, UniProt O14965); assay: AuroraA-TPX2 Homogeneous Time Resolved Fluorescent (HTRF) kinase assay; assay type: biochemical; conditions: average; read-out: AurA_IC50_IP (uM Avg)
T1 construct: 20 μL of AuroraA-TPX2 KD GST for a final volume of about 41 μL; GST
T1 sequence (O14965 133-383 limits assumed): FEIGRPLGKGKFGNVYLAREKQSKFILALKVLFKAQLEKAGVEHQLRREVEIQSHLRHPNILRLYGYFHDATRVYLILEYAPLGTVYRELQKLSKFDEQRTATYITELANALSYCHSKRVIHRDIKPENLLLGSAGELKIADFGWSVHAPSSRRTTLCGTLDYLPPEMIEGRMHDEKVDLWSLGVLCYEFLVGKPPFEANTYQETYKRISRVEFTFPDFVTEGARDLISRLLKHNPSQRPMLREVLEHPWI
T1 sequence (Q9ULW0 1-43 partner limits assumed): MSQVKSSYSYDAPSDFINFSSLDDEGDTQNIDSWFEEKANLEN
Method in brief: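 HTRF read-out (Eu 615 nm to APC 655 nm) of phosphorylated biotin-PLK, detected with 0.02 nM europium anti-phosphoPLK antibody and 0.0005 mg/mL SA-APC after overnight equilibration.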

[2] = target: T2, AuroraB (Homo sapiens, UniProt Q96GD4); assay: AuroraB Homogeneous Time Resolved Fluorescent (HTRF) kinase assay; assay type: biochemical; conditions: average; read-out: AurB_IC50_IP (uM Avg)
T2 construct: 20 μL of AuroraB FL H is for a final volume of 41 μL; His
Method in brief: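 Read-out is time-resolved FRET between europium anti-phospho-H3 antibody and streptavidin-APC, added in EDTA buffer to stop the reaction and equilibrated about 60 min (ex 320, em 615 and 655 nm). Preceding reaction: ~90 min, full-length enzyme, ATP, 0.1 μM biotin-Histone H3 substrate, Mg/Mn HEPES buffer pH 7.5.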

T2 sequence (Q96GD4 whole entry): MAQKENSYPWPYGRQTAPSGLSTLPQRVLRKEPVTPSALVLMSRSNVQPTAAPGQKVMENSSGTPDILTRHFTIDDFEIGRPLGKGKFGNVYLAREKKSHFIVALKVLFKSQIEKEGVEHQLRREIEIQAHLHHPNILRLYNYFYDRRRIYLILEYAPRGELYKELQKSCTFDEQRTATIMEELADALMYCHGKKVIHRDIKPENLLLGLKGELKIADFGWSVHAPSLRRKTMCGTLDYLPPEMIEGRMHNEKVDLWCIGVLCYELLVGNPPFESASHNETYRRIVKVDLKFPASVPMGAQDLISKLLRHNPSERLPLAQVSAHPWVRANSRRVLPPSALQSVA

| Structure (SMILES) | IC50 [1] | IC50 [2] |
| --- | --- | --- |
| COc1cnc2c(Oc3ccc(Nc4nnc(-c5ccc(Cl)cc5OC)c5ccccc45)cc3)ccnc2c1 [compound 253, 4-(4-chloro-2-(methyloxy)phenyl)-N-(4-((7-(methyloxy)-1,5-naphthyridin-4-yl)oxy)phenyl)-1-phthalazinamine] | 0.173 µM | 0.009 µM |
| COc1cnc2c(Oc3ccc(Nc4nnc(-c5ccc(F)c(Cl)c5)c5ccccc45)cc3)ccnc2c1 [compound 193, 4-(3-chloro-4-fluorophenyl)-N-(4-((7-(methyloxy)-1,5-naphthyridin-4-yl)oxy)phenyl)-1-phthalazinamine] | 0.023 µM | 0.005 µM |
| c1ccc(-c2nnc(Nc3ccc(Sc4ccnc5ccccc45)cc3)c3ccccc23)cc1 [compound 310, 4-phenyl-N-(4-(4-quinolinylthio)phenyl)-1-phthalazinamine] | 0.209 µM | 0.017 µM |
| COc1cnc2c(Oc3ccc(Nc4nnc(-c5ccncc5OC)c5ccccc45)cc3)ccnc2c1 [compound 130, N-(4-((7-(methyloxy)-1,5-naphthyridin-4-yl)oxy)phenyl)-4-(3-(methyloxy)-4-pyridinyl)-1-phthalazinamine] | 0.654 µM | 0.1 µM |
| COc1cnc2c(Oc3ccc(Nc4nnc(-c5ccc(Cl)nc5)c5ccccc45)cc3)ccnc2c1 [compound 235, 4-(6-chloro-3-pyridinyl)-N-(4-((7-(methyloxy)-1,5-naphthyridin-4-yl)oxy)phenyl)-1-phthalazinamine] | 0.123 µM | 0.003 µM |
| COc1cnc2c(Oc3ccc(Nc4nnc(-c5cc(C)cc(C)c5)c5ccccc45)cc3)ccnc2c1 [compound 188, 4-(3,5-dimethylphenyl)-N-(4-((7-(methyloxy)-1,5-naphthyridin-4-yl)oxy)phenyl)-1-phthalazinamine] | 0.017 µM | 0.006 µM |
| COc1cnc2c(Oc3ccc(Nc4nnc(-c5ccc(OC(F)(F)F)cc5)c5ccccc45)cc3)ccnc2c1 [compound 163, N-(4-((7-(methyloxy)-1,5-naphthyridin-4-yl)oxy)phenyl)-4-(4-((trifluoromethyl)oxy)phenyl)-1-phthalazinamine] | 0.072 µM | 0.009 µM |
| COCCOCCOc1ccc2nccc(Sc3ccc(Nc4nnc(-c5ccc(Cl)cc5)c5ccccc45)cc3)c2c1 [Example 389, 4-(4-Chlorophenyl)-N-(4-(6-(2-(2-methoxyethoxy)ethoxy)quinolin-4-ylthio)phenyl)phthalazin-1-amine] | 0.021 µM | 0.022 µM |
| NC(=O)c1cc2nccc(Oc3ccc(Nc4nnc(-c5ccccc5)c5ccccc45)cc3F)c2s1 [compound 78, 7-((2-fluoro-4-((4-phenyl-1-phthalazinyl)amino)phenyl)oxy)thieno-[3,2-b]pyridine-2-carboxamide] | 0.022 µM | 0.004 µM |
| Cc1nc(-c2nnc(Nc3ccc(Oc4ccnc5cc(C#N)ccc45)cc3)c3ccccc23)sc1C [compound 277, 4-((4-((4-(4,5-dimethyl-1,3-thiazol-2-yl)-1-phthalazinyl)amino)phenyl)oxy)-7-quinolinecarbonitrile] | 0.065 µM | 0.007 µM |
| N#Cc1ccc2c(Oc3ccc(Nc4nnc(-c5cccc(O)c5)c5ccccc45)cc3)ccnc2c1 [compound 93, 4-((4-((4-(3-hydroxyphenyl)-1-phthalazinyl)amino)phenyl)oxy)-7-quinolinecarbonitrile] | 0.008 µM | 0.001 µM |
| COc1cnc2c(Oc3ccc(Nc4nnc(-c5ccc(C(F)(F)F)cc5)c5ccccc45)cc3)ccnc2c1 [compound 146, N-(4-((7-(methyloxy)-1,5-naphthyridin-4-yl)oxy)phenyl)-4-(4-(trifluoromethyl)phenyl)-1-phthalazinamine] | 0.026 µM | 0.008 µM |
| COc1cnc2c(Sc3ccc(Nc4nnc(-c5ccn(C)c(=O)c5)c5ccccc45)cc3)ccnc2c1 [Example 396, 4-(4-(4-(7-Methoxy-1,5-naphthyridin-4-ylthio)phenylamino)phthalazin-1-yl)-1-methylpyridin-2(1H)-one] | 0.05 µM | > 125 µM |
| COc1ccccc1-c1nnc(Nc2ccc(Oc3ccnc4cc(C#N)ccc34)cc2)c2ccccc12 [compound 119, 4-((4-((4-(2-(methyloxy)phenyl)-1-phthalazinyl)amino)phenyl)oxy)-7-quinolinecarbonitrile] | 0.175 µM | 0.007 µM |
| FC(F)Oc1cnc2c(Sc3ccc(Nc4nnc(-c5ccccc5)c5ccccc45)cc3)ccnc2c1 [Example 387, N-(4-(7-(difluoromethoxy)-1,5-naphthyridin-4-ylthio)phenyl)-4-phenylphthalazin-1-amine] | 0.135 µM | 0.048 µM |
| COc1cnc2c(Oc3ccc(Nc4nnc(N5CCN6CCC[C@H]6C5)c5ccccc45)cc3)ccnc2c1 [compound 97, 4-((8aS)-hexahydropyrrolo[1,2-a]pyrazin-2(1H)-yl)-N-(4-((7-(methyloxy)-1,5-naphthyridin-4-yl)oxy)phenyl)-1-phthalazinamine] | 0.01 µM | 0.002 µM |
| CCN(CC)C(=O)c1cc2nccc(Oc3ccc(Nc4nnc(-c5ccc(Cl)cc5)c5ccccc45)cc3)c2s1 [compound 270, 7-((4-((4-(4-chlorophenyl)-1-phthalazinyl)amino)phenyl)oxy)-N,N-diethylthieno[3,2-b]pyridine-2-carboxamide] | 0.084 µM | 0.01 µM |
| COc1cnc2c(Sc3ccc(Nc4nnc(-c5cc(C)cs5)c5ccccc45)cc3)ccnc2c1 [compound 271, N-(4-(7-methoxy-1,5-naphthyridin-4-ylthio)phenyl)-4-(4-methylthiophen-2-yl)phthalazin-1-amine] | 0.066 µM | 0.024 µM |

Other lines, results leading:

| IC50 [1] | IC50 [2] | Structure (SMILES) |
| --- | --- | --- |
| 0.044 µM | 0.009 µM | Cc1ccc(-c2nnc(Nc3ccc(Sc4ccnc5cc(C#N)sc45)cc3)c3ccccc23)cn1 [compound 461] |
| 0.017 µM | 0.032 µM | COc1cnc2c(Sc3ccc(Nc4nnc(-c5ccc6nonc6c5)c5ccccc45)cc3)ccnc2c1 [compound 504] |
| 0.129 µM | 0.029 µM | Cc1csc(-c2nnc(Nc3ccc(Sc4ccnc5ccoc45)cc3)c3ccccc23)c1 [compound 468] |
| > 25 µM | 0.129 µM | COc1ccc2ncnc(Oc3ccc(Nc4nnc(-c5ccc(Cl)cc5)c5ccccc45)cc3)c2c1 [compound 564] |
| 0.013 µM | 0.019 µM | COc1cnc2c(Sc3ccc(Nc4nnc(-c5ccc(Cl)cn5)c5ccccc45)cc3)ccnc2c1 [compound 325, 4-(5-chloro-2-pyridinyl)-N-(4-((7-(methyloxy)-1,5-naphthyridin-4-yl)thio)phenyl)-1-phthalazinamine] |
| 0.246 µM | 0.681 µM | COc1cc2nccc(Sc3ccc(Nc4nnc(-c5ccccc5)c5ccccc45)cc3)c2nc1OC [compound 597] |
| 0.04 µM | 0.024 µM | COc1ccc2c(Oc3ccc(Nc4nnc(-c5ccc(Cl)cc5)c5ccccc45)cc3)ccnc2c1 [compound 345, 4-(4-chlorophenyl)-N-(4-(7-methoxyquinolin-4-yloxy)phenyl)phthalazin-1-amine] |
| 0.093 µM | 0.012 µM | Clc1ccc(-c2nnc(Nc3ccc(Sc4ccnc5ccoc45)cc3)c3ccccc23)cc1 [compound 465] |
| 0.124 µM | 0.042 µM | COc1cnc2c(Oc3ccc(Nc4nnc(N5CC[C@H]6CCCC[C@@H]6C5)c5ccccc45)cc3)ccnc2c1 [compound 586] |
| 0.746 µM | 0.293 µM | COCCOCCn1c(=O)ccc2nccc(Sc3ccc(Nc4nnc(-c5ccc(Cl)cc5)c5ccccc45)cc3)c21 [compound 476] |
| 0.479 µM | 0.005 µM | COc1ccc(-c2nnc(Nc3ccc(Sc4ccnc5ccoc45)cc3)c3ccccc23)cn1 [compound 485] |
| 0.073 µM | 0.011 µM | COCCOc1ccc(-c2nnc(Nc3ccc(Sc4ccnc5cc(OC)cnc45)cc3)c3ccccc23)cc1OCCOC [compound 473] |
| 0.058 µM | 0.008 µM | COc1cc2nccc(Sc3ccc(Nc4nnc(-c5ccccc5)c5ccccc45)cc3)c2cn1 [compound 353, N-(4-(7-methoxy-1,6-naphthyridin-4-ylthio)phenyl)-4-phenylphthalazin-1-amine] |
| 0.456 µM | 0.135 µM | COc1cc(OC)c2c(Oc3ccc(Nc4nnc(-c5cc(C)cs5)c5ccccc45)cc3)ccnc2c1 [compound 441] |
| 0.803 µM | 0.083 µM | COc1cnc2c(Sc3ccc(Nc4nnc(N5CCN(S(C)(=O)=O)CC5)c5ccccc45)cc3)ccnc2c1 [compound 605] |
| 0.089 µM | 0.024 µM | COc1cnc2c(Sc3ccc(Nc4nnc(N5CCC(F)(F)CC5)c5ccccc45)cc3)ccnc2c1 [compound 531] |
| 0.019 µM | 0.036 µM | Clc1ccc(-c2nnc(Nc3ccc(Sc4ccnc5[nH]cnc45)cc3)c3ccccc23)cc1 [compound 363, N-(4-(3H-imidazo[4,5-b]pyridin-7-ylthio)phenyl)-4-(4-chlorophenyl)phthalazin-1-amine] |
| 0.09 µM | 0.019 µM | N#Cc1cc2nccc(Sc3ccc(Nc4nnc(-c5ccc(Cl)cc5)c5ccccc45)cc3)c2o1 [compound 489] |
| 0.3 µM | 0.039 µM | COc1ccc2c(C(=O)c3ccc(Nc4nnc(-c5ccc(Cl)cc5)c5ccccc45)cc3)ccnc2c1 [compound 615] |
